Test results reported in patent US20240018163A1, “NEW THIAZOLOPYRIMIDINONE DERIVATIVES” (Hoffmann-La Roche Inc., priority 2021, published 2024).

System: mutant HTT protein (mHTT)
Assay: Homogeneous Time Resolved Fluorescence (HTRF) assay for HTT lowering
Assay type: cell-based
Settings: reduction of mHTT in Huntington patient human cells (GENEAe020-A cell line), 48 hours incubation, mean from three replicates
Experimental: Homogeneous Time Resolved Fluorescence for HTT lowering
The HTRF assay was adapted from Weiss et al. (Analytical Biochemistry Volume 395, Issue 1, 1 Dec. 2009, Pages 8-15 and Analytical Biochemistry Volume 410, 2011, Pages 304-306) to cells from GENEAe020-A cell line (https://hpscreg.eu/cell-line/GENEAe020-A).
Compounds were tested for the effect of mutant HTT levels in Huntington patient human cells (GENEAe020-A cell line) using Homogeneous Time Resolved Fluorescence (HTRF) directed towards mutant HTT protein (mHTT). The GENEAe020-A cell line was derived by Genea Biocells from human blastocysts of HD donors. After assessing viability, cells were plated into 384 well collagen coated plates in growth media. Once cells adhered, media was removed and test compounds dissolved in DMSO were diluted with buffer solution and added to the adherent cells. Controls included experiments with no cells, DMSO with no compound, and Hsp90 inhibitor control. Cells were incubated with compounds and controls for 48 hours. Then, the cells were lysed and transferred to an assay plate containing HTRF labeled monoclonal antibodies developed by Paul Patterson (Ko et al., Brain Research Bulletin, Volume 56, Numbers 3 and 4, 2001, Pages 319-329) which recognize specific areas of the HTT protein. The terbium labeled “donor” antibody (2B7) binds to the N-terminus of the HTT protein and the Alexa488 labeled “acceptor” antibody (MW1) is specific for the polyglutamine region of the protein. Binding of the acceptor labeled antibody is more efficient for the extended polyglutamine repeats of mutant HTT protein which translates into a signal boost which enables the specific measurement of mutant HTT protein level. The HTRF donor and acceptor detection reagents were incubated with the cell lysate and the ratio between the signals of the two fluorophores is indicative of the relative quantities of mHTT.

Molecule `Cc1cn2nc(-c3cc(=O)n4cc(N5CCNC(C)(C)C5)sc4n3)cc(C)c2n1` [Example 3, 7-(2,8-dimethylimidazo[1,2-b]pyridazin-6-yl)-2-(3,3-dimethylpiperazin-1-yl)thiazolo[3,2-a]pyrimidin-5-one] has an EC50 of 625 nM.

`Cc1cn2nc(-c3cc(=O)n4cc(C5=CCNCC5)sc4n3)cc(C)c2n1` [Example 2, 7-(2,8-dimethylimidazo[1,2-b]pyridazin-6-yl)-2-(1,2,3,6-tetrahydropyridin-4-yl)thiazolo[3,2-a]pyrimidin-5-one] showed an EC50 of 54 nM.

`Cc1cn2nc(-c3cc(=O)n4cc(N5C6CCC5CNC6)sc4n3)cc(C)c2n1` [Example 14, 2-(3,8-diazabicyclo[3.2.1]octan-8-yl)-7-(2,8-dimethylimidazo[1,2-b]pyridazin-6-yl)thiazolo[3,2-a]pyrimidin-5-one] was tested, and the EC50 was 931 nM.

`Cc1cn2nc(-c3cc(=O)n4cc([C@H]5CCNC[C@H]5F)sc4n3)cc(C)c2n1` [Example 33, 7-(2,8-dimethylimidazo[1,2-b]pyridazin-6-yl)-2-[(3S,4S)-3-fluoro-4-piperidyl]thiazolo[3,2-a]pyrimidin-5-one] was tested, and the EC50 was 86 nM.

With `Cc1cn2nc(-c3cc(=O)n4cc([C@]5(F)CCNC[C@H]5F)sc4n3)cc(C)c2n1` (racemic) [Example 53, 7-(2,8-dimethylimidazo[1,2-b]pyridazin-6-yl)-2-[rac-(3R,4S)-3,4-difluoro-4-piperidyl]thiazolo[3,2-a]pyrimidin-5-one] the EC50 was 132 nM.

With `Cc1cn2nc(-c3cc(=O)n4cc(N5CCC6(CCNCC6)C5)sc4n3)cc(C)c2n1` [Example 22, 2-(2,8-diazaspiro[4.5]decan-2-yl)-7-(2,8-dimethylimidazo[1,2-b]pyridazin-6-yl)thiazolo[3,2-a]pyrimidin-5-one] the EC50 was 1320 nM.

`Cc1cn2nc(-c3cc(=O)n4cc(N5CCNCC5)sc4n3)ccc2n1` [Example 10, 7-(2-methylimidazo[1,2-b]pyridazin-6-yl)-2-piperazin-1-yl-thiazolo[3,2-a]pyrimidin-5-one] was tested, and the EC50 was 283 nM.

For `COc1cc(-c2cc(=O)n3cc([C@@H]4CCNC5(CC5)C4)sc3n2)nn2cc(C)nc12` [Example 41, 7-(8-methoxy-2-methyl-imidazo[1,2-b]pyridazin-6-yl)-2-[(7R)-4-azaspiro[2.5]octan-7-yl]thiazolo[3,2-a]pyrimidin-5-one], the EC50 was 106 nM.

`COc1cc(-c2cc(=O)n3cc([C@H]4C[C@H]5CNC[C@@H](C4)O5)sc3n2)nn2cc(C)nc12` [Example 50, 7-(8-methoxy-2-methyl-imidazo[1,2-b]pyridazin-6-yl)-2-[rac-(1S,5R)-9-oxa-3-azabicyclo[3.3.1]nonan-7-yl]thiazolo[3,2-a]pyrimidin-5-one] showed an EC50 of 57 nM.

Work on `Cc1cn2nc(-c3cc(=O)n4cc(N5CC(C)NC(C)C5)sc4n3)cc(C)c2n1` (stereo not drawn) [Example 8, 7-(2,8-dimethylimidazo[1,2-b]pyridazin-6-yl)-2-(3,5-dimethylpiperazin-1-yl)thiazolo[3,2-a]pyrimidin-5-one] yielded an EC50 of 386 nM.

`Cc1nc2c(C)cc(-c3cc(=O)n4cc(N5CCNCC5)sc4n3)nc2o1` [Example 20, 7-(2,7-dimethyloxazolo[5,4-b]pyridin-5-yl)-2-piperazin-1-yl-thiazolo[3,2-a]pyrimidin-5-one] was tested, and the EC50 was 136 nM.

With `Cc1cn2nc(-c3cc(=O)n4cc(N5CCN6CCC[C@H]6C5)sc4n3)cc(C)c2n1` [Example 9, 7-(2,8-dimethylimidazo[1,2-b]pyridazin-6-yl)-2-[(8aS)-3,4,6,7,8,8a-hexahydro-1H-pyrrolo[1,2-a]pyrazin-2-yl]thiazolo[3,2-a]pyrimidin-5-one] the EC50 was 796 nM.

`Cc1cn2nc(-c3cc(=O)n4cc([C@H]5[C@@H]6CNC[C@@H]65)sc4n3)cc(C)c2n1` [Example 55, 7-(2,8-dimethylimidazo[1,2-b]pyridazin-6-yl)-2-[rac-(1S,5R)-3-azabicyclo[3.1.0]hexan-6-yl]thiazolo[3,2-a]pyrimidin-5-one] was tested, and the EC50 was 65 nM.

`COc1cc(-c2cc(=O)n3cc([C@@]4(F)CCNC[C@H]4F)sc3n2)nn2cc(C)nc12` [Example 58, 7-(8-methoxy-2-methyl-imidazo[1,2-b]pyridazin-6-yl)-2-[(3R,4R)-3,4-difluoro-4-piperidyl]thiazolo[3,2-a]pyrimidin-5-one] gave an EC50 of 99 nM.

`Cc1cc(-c2cc(=O)n3cc([C@@H]4CCNC[C@@H]4F)sc3n2)nn2cc(Cl)nc12` [Example 43, 7-(2-chloro-8-methyl-imidazo[1,2-b]pyridazin-6-yl)-2-[(3R,4R)-3-fluoro-4-piperidyl]thiazolo[3,2-a]pyrimidin-5-one] gave an EC50 of 152 nM.

`Cc1nc2c(C)cc(-c3cc(=O)n4cc([C@@H]5CCNC[C@@H]5F)sc4n3)nc2o1` [Example 44, 7-(2,7-dimethyloxazolo[5,4-b]pyridin-5-yl)-2-[(3R,4R)-3-fluoro-4-piperidyl]thiazolo[3,2-a]pyrimidin-5-one] was tested, and the EC50 was 59 nM.

In the case of `Cc1cn2nc(-c3cc(=O)n4cc([C@H]5CCNC[C@@H]5F)sc4n3)cc(C)c2n1` [Example 39, 7-(2,8-dimethylimidazo[1,2-b]pyridazin-6-yl)-2-[(3R,4S)-3-fluoro-4-piperidyl]thiazolo[3,2-a]pyrimidin-5-one], the EC50 is reported as 53 nM.

`COc1cc(-c2cc(=O)n3cc([C@]4(F)CCNC[C@H]4F)sc3n2)nn2cc(C)nc12` [Example 56, 7-(8-methoxy-2-methyl-imidazo[1,2-b]pyridazin-6-yl)-2-[(3R,4S)-3,4-difluoro-4-piperidyl]thiazolo[3,2-a]pyrimidin-5-one] gave an EC50 of 50 nM.

Molecule `Cc1cn2nc(-c3cc(=O)n4cc([C@H]5CCNC6(CC6)C5)sc4n3)cc(C)c2n1` [Example 36, 7-(2,8-dimethylimidazo[1,2-b]pyridazin-6-yl)-2-[(7S)-4-azaspiro[2.5]octan-7-yl]thiazolo[3,2-a]pyrimidin-5-one] has an EC50 of 55 nM.

In the case of `Cc1cn2nc(-c3cc(=O)n4cc([C@H]5C[C@H]6CNC[C@@H](C5)O6)sc4n3)cc(C)c2n1` [Example 47, 7-(2,8-dimethylimidazo[1,2-b]pyridazin-6-yl)-2-[rac-(1R,5S)-9-oxa-3-azabicyclo[3.3.1]nonan-7-yl]thiazolo[3,2-a]pyrimidin-5-one], the EC50 is reported as 330 nM.

For `Cc1cn2nc(-c3cc(=O)n4cc(C5CCNCC5)sc4n3)cc(C)c2n1` [Example 24, 7-(2,8-dimethylimidazo[1,2-b]pyridazin-6-yl)-2-(4-piperidyl)thiazolo[3,2-a]pyrimidin-5-one], the EC50 was 28 nM.

In the case of `C=C(C)c1cc(-c2cc(=O)n3cc(N4CCNCC4)sc3n2)nn2cc(C)nc12` [Example 19, 7-(8-isopropenyl-2-methyl-imidazo[1,2-b]pyridazin-6-yl)-2-piperazin-1-yl-thiazolo[3,2-a]pyrimidin-5-one], the EC50 is reported as 3000 nM.

With `Cc1cn2nc(-c3cc(=O)n4cc([C@H]5C[C@H]6CNC[C@@H](C5)O6)sc4n3)cc(C)c2n1` [Example 48, 7-(2,8-dimethylimidazo[1,2-b]pyridazin-6-yl)-2-[rac-(1S,5R)-9-oxa-3-azabicyclo[3.3.1]nonan-7-yl]thiazolo[3,2-a]pyrimidin-5-one] the EC50 was 92 nM.

`Cc1cn2nc(-c3cc(=O)n4cc([C@@H]5CCNC[C@@H]5F)sc4n3)cc(C)c2n1` [Example 32, 7-(2,8-dimethylimidazo[1,2-b]pyridazin-6-yl)-2-[(3R,4R)-3-fluoro-4-piperidyl]thiazolo[3,2-a]pyrimidin-5-one] showed an EC50 of 33 nM.
